In paper PMC10295546, “Synthesis, Cytotoxicity and Molecular Docking of New Hybrid Compounds by Combination of Curcumin with Oleanolic Acid” (Biomedicines, 2023):

Columns and labels:
Type in all cases: cell-based, human
HeLaWT cells [1] = experiment: MTT cell viability assay, HeLaWT
Protocol: (§1) The assay was performed as previously described.

MCF-12A cells = experiment: MTT cell viability assay, non-tumorigenic MCF-12A
Protocol: as §1

MCF7 cells [2] = experiment: MTT cell viability assay, MCF7; conditions: for IC50: MTT
Protocol: as §1

HT-29 cells [3] = experiment: MTT cell viability assay, HT-29; conditions: for IC50: MTT
Protocol: as §1

[4] = system: HeLaWT, HT-29, MCF7 and MCF-12A cells; experiment: MTT cell viability assay, statement for all studied cells; conditions: for IC50: Homo sapiens, all studied cells, applied concentration range, time not specified
Protocol: as §1

HeLaWT cells [5] = experiment: Cell cycle analysis (propidium iodide flow cytometry), HeLaWT
Protocol: (§2) To analyze the influence of the chosen compounds on the cell cycle, a flow cytometry analysis using propidium iodide was performed as previously described. The HT-29, MCF7 and HeLaWT cells (3 × 10^5 cells) were incubated overnight to reach sedimentation and then were treated with 0.5 and 1 × IC50 of KS1, KS2, KS5, KS6, KS7 and KS8, or Doxorubicin (positive control). Cell cycle analysis was performed after incubation for 24 h. Then, cells were harvested, washed twice with phosphate-buffered saline (PBS), and incubated with a solution of 1% saponin, 50 µg/mL propidium iodide and 10 mg/mL of RNase A (Sigma-Aldrich, Schnelldorf, Germany) in PBS for 1 h at 37 °C. DNA content was analyzed by flow cytometry at the […] wavelength of 488 nm using FACScan (Becton–Dickinson, Franklin Lakes, NJ, USA). The relative proportions of cells in the G1/G0, S and G2/M phases of the cell cycle were determined from the obtained data. Three separate experiments in triplicates were performed for each cell line.

HeLaWT cells [6] = experiment: TUNEL assay, HeLaWT
Protocol: (§3) To determine the percentage of apoptotic cells, the TUNEL assay was performed as described elsewhere. TUNEL staining for the detection and quantification of apoptosis at the single-cell level was performed using an in situ cell death detection kit (Roche, Mannheim, Germany) according to the manufacturer’s protocol. Briefly, HT-29, HeLaWT and MCF7 cells (5 × 10^5/well) were seeded into 6-well plates and cultured overnight before exposure to different concentrations of tested compounds for 24 h. For TUNEL labeling, cells were harvested, fixed, permeabilized and labeled with the TUNEL reaction mixture (enzyme and label solutions) for 1 h at 37 °C in the dark. Negative controls were created by omitting the terminal deoxynucleotidyl enzyme and adding the same volume of the label solution. The cells were analyzed using a FACScan flow cytometer (Becton–Dickinson, Franklin Lakes, NJ, USA).

MCF7 cells [7] = experiment: Cell cycle analysis (propidium iodide flow cytometry), MCF7; conditions: MCF7, both applied concentrations (0.5 × IC50 and 1 × IC50), 24 h
Protocol: as §2

HT-29 cells [8] = experiment: Cell cycle analysis (propidium iodide flow cytometry), HT-29
Protocol: as §2

HT-29 cells [9] = experiment: TUNEL assay, HT-29; conditions: HT-29, 1 × IC50, 24 h, non-statistically significant
Protocol: as §3

[10] = Homo sapiens, MCF-12A, 24 h, MTT
[11] = Homo sapiens, MCF-12A, 48 h, MTT
[12] = Homo sapiens, MCF-12A, 72 h, MTT
[13] = Homo sapiens, non-cancerous MCF-12A cells, applied concentration range, time not specified

Structure (SMILES)	IC50 (HeLaWT cells [1]; Homo sapiens, 24 h) [µM]	IC50 (HeLaWT cells [1]; Homo sapiens, 48 h) [µM]	IC50 (HeLaWT cells [1]; Homo sapiens, 72 h) [µM]	IC50 (MCF-12A cells; [10]) [µM]	IC50 (MCF-12A cells; [11]) [µM]	IC50 (MCF-12A cells; [12]) [µM]	IC50 (MCF7 cells [2]; Homo sapiens, MCF7, 24 h) [µM]	IC50 (MCF7 cells [2]; Homo sapiens, MCF7, 48 h) [µM]	IC50 (MCF7 cells [2]; Homo sapiens, MCF7, 72 h) [µM]	IC50 (HT-29 cells [3]; Homo sapiens, HT-29, 24 h) [µM]	IC50 (HT-29 cells [3]; Homo sapiens, HT-29, 48 h) [µM]	IC50 (HT-29 cells [3]; Homo sapiens, HT-29, 72 h) [µM]	IC50 (MCF-12A cells; [13]) [µM]	IC50 [4] [µM]	further results
COc1cc(/C=C/c2cc(/C=C/c3ccc(OC(=O)CCC(=O)OC4CCC5(C)C(CCC6(C)C5CC=C5C7CC(C)(C)CCC7(C(=O)O)CCC56C)C4(C)C)c(OC)c3)on2)ccc1O (stereo not shown) [KS5, Curcumin isoxazole mono-oleanoyl hydrogen succinate]	70.1 ± 3.5	51.2 ± 2.5	27.3 ± 1.4	83.2 ± 3.1	68.7 ± 2.4	49.9 ± 1.6	80.8 ± 4	45.6 ± 2.3	37.8 ± 1.9	29 ± 1.4	23.2 ± 1.2	21.5 ± 1.1	–	–	–
CC1(C)CCC2(C(=O)O)CCC3(C)C(=CCC4C5(C)CCC(OC(=O)CCC(=O)O)C(C)(C)C5CCC43C)C2C1 (stereo not drawn) [KS1, 4-{[(3 β )-28-hydroksy-28-oxoolean-12-en-3-yl]oxy}-4-oxobutanoic acid]	–	–	–	–	–	–	–	–	–	–	–	–	–	–	IC50 (HeLaWT cells [1]; 24 h): > 100 µM; IC50 (HeLaWT cells [1]; 48 h): > 100 µM; IC50 (HeLaWT cells [1]; 72 h): > 100 µM; cytotoxic activity (in words) (HeLaWT cells [1]; summary of Table 1): inactive; IC50 (MCF-12A cells; MCF-12A, 24 h, MTT): > 100 µM; IC50 (MCF-12A cells; MCF-12A, 48 h, MTT): 47.7 ± 2.1 µM; IC50 (MCF-12A cells; MCF-12A, 72 h, MTT): 42.1 ± 1.9 µM; IC50 (MCF7 cells [2]; MCF7, 24 h): > 100 µM; IC50 (MCF7 cells [2]; MCF7, 48 h): 34.4 ± 2.2 µM; IC50 (MCF7 cells [2]; MCF7, 72 h): 22.5 ± 0.9 µM; cytotoxic activity (in words) (MCF7 cells [2]; MCF7, MTT, summary of Table 1): quite active; IC50 (HT-29 cells [3]; HT-29, 24 h): > 100 µM; IC50 (HT-29 cells [3]; HT-29, 48 h): > 100 µM; IC50 (HT-29 cells [3]; HT-29, 72 h): > 100 µM; cytotoxic activity (in words) (HT-29 cells [3]; HT-29, MTT, summary of Table 1): inactive
COc1cc(/C=C/c2cc(/C=C/c3ccc(OC(=O)CCC(=O)OC4CCC5(C)C(CCC6(C)C5CC=C5C7CC(C)(C)CCC7(C(=O)O)CCC56C)C4(C)C)c(OC)c3)[nH]n2)ccc1O (stereo not shown) [KS6, Curcumin pyrazole mono-oleanoyl hydrogen succinate]	77.1 ± 3.8	45 ± 2.3	25.9 ± 1.3	> 100	54.3 ± 2.7	44.6 ± 1.9	69.1 ± 3.4	25.9 ± 1.3	20.2 ± 1	94.4 ± 4.7	51.9 ± 2.6	26 ± 1.3	–	–	–
COc1cc(/C=C/C(=O)/C=C(O)/C=C/c2ccc(OC(=O)CCC(=O)OC3CCC4(C)C(CCC5(C)C4CC=C4C6CC(C)(C)CCC6(C(=O)O)CCC45C)C3(C)C)c(OC)c2)ccc1O (stereo not shown) [KS4, Curcumin mono-oleanoyl hydrogen succinate]	> 100	> 100	> 100	> 100	> 100	> 100	> 100	> 100	> 100	> 100	> 100	> 100	> 100	> 100	–
COC(=O)C12CCC(C)(C)CC1C1=CCC3C4(C)CCC(OC(=O)CCC(=O)Oc5ccc(/C=C/c6cc(/C=C/c7ccc(O)c(OC)c7)no6)cc5OC)C(C)(C)C4CCC3(C)C1(C)CC2 (stereo not shown) [KS7, Curcumin isoxazole mono-oleanoyl hydrogen succinate methyl ester]	> 100	> 100	> 100	> 100	> 100	> 100	> 100	> 100	> 100	> 100	> 100	> 100	> 100	> 100	cytotoxic activity (in words) ([4]; all cell lines, MTT, summary of Table 1): inactive
COC(=O)C12CCC(C)(C)CC1C1=CCC3C4(C)CCC(OC(=O)CCC(=O)Oc5ccc(/C=C/c6cc(/C=C/c7ccc(O)c(OC)c7)n[nH]6)cc5OC)C(C)(C)C4CCC3(C)C1(C)CC2 (stereo not shown) [KS8, Curcumin pyrazole mono-oleanoyl hydrogen succinate methyl ester]	53.4 ± 2.7	36.9 ± 1.8	25.6 ± 1.2	62.7 ± 3.1	43.4 ± 2.2	42.3 ± 2.5	44.3 ± 2.2	33.2 ± 1.7	29.9 ± 1.5	20.6 ± 1	17.9 ± 0.9	17.3 ± 0.9	–	–	–
COC(=O)C12CCC(C)(C)CC1C1=CCC3C4(C)CCC(OC(=O)CCC(=O)Oc5ccc(/C=C/C(O)=C/C(=O)/C=C/c6ccc(O)c(OC)c6)cc5OC)C(C)(C)C4CCC3(C)C1(C)CC2 (stereo not shown) [KS3, Curcumin mono-oleanoyl hydrogen succinate methyl ester]	> 100	> 100	> 100	> 100	> 100	> 100	> 100	> 100	> 100	> 100	> 100	> 100	> 100	> 100	–
COc1cc(/C=C/C(=O)CC(=O)/C=C/c2ccc(O)c(OC)c2)ccc1O [KS2, curcumin]	57.2 ± 2.2	28.7 ± 1.1	16.2 ± 0.65	75.6 ± 2.5	46.4 ± 2	42 ± 1.6	15.6 ± 0.8	14.6 ± 0.6	7.5 ± 0.4	25.2 ± 1.3	13.9 ± 0.7	11.1 ± 0.6	–	–	effect on cell cycle phases (HeLaWT cells [5]; 0.5 × IC50, 24 h): a decrease in the G0/G1 phase, and an increase in the G2/M phase; effect on cell cycle phases (HeLaWT cells [5]; 1 × IC50, 24 h): a decrease in the number of cells in the G0/G1 phase; increase of apoptotic cells (cell cycle analysis) (HeLaWT cells [5]; 1 × IC50, 24 h): up to 10%; number of apoptotic cells (TUNEL) (HeLaWT cells [6]; 0.5 × IC50, 24 h): 30%; number of apoptotic cells (TUNEL) (HeLaWT cells [6]; 1 × IC50, 24 h): 80%; effect on cell cycle phases (MCF7 cells [7]): a decrease in the G0/G1 phase, and an increase in the G2/M phase; increase of apoptotic cells (cell cycle analysis) (HT-29 cells [8]; HT-29, 24 h, in comparison to control untreated cells): 7%; effect on cell cycle phases (HT-29 cells [8]; HT-29, both applied concentrations (0.5 × IC50 and 1 × IC50), 24 h): a decrease in the G0/G1 phase, and an increase in the G2/M phase; increase of apoptosis (TUNEL) (HT-29 cells [9]): 10%
